The structures appear in SMILES notation.

The values below come from US12612650B2, “Methods for improved homologous recombination and compositions thereof” (LIFE TECHNOLOGIES CORPORATION, priority 2017, dated 2026).

The experiment has as its system genomic locus of beta-actin. The experiment can be described thus: OFP-positive cells by flow cytometry after electroporation of Cas9 RNP and donor DNA into human primary T cells. Type of experiment: cell-based. The settings on record: 30 μM, 48 hours. As for the experimental part:
Human peripheral blood mononuclear cells (PBMCs) were isolated from peripheral blood using Ficoll-Paque PLUS density gradient according to manufacturer's instructions. The human primary T cells were then isolated using DYNABEADS™ UNTOUCHED™ Human T Cells Kit and expanded using OPTMIZER™ CTS™ T-Cell Expansion SFM supplemented with 200 IU/mL of IL-2. The activation and expansion of human T cells were carried out using DYNABEADS™ Human T-Expander CD3/CD28 kit. On day 3 of activation, T cells were harvested for transfection.
For transfection of primary T cells, 1×10^5 cells were used per NEON® electroporation with voltage set at 1700V, pulse width set at 20 ms, and the number of pulses set at 1, respectively. […] Cells were analyzed at 48 hours post transfection.
Traditionally, a plasmid donor was used to incorporate large DNA molecules into the genome. […] At 48 hours post transfection, we analyzed the percentages of OFP-positive cells using flow cytometry. […]
Linear ds- or ss-DNA donor could be degraded in vivo by exonucleases. […] At 48 hours post transfection, the percentages of OFP-positive cells were determined by flow cytometric analysis. […]
The disruption of NHEJ repair pathway is known to improve HDR efficiency. […] At 48 hours post transfection, we analyzed the cells by flow cytometry.

Turning to `O=c1cc(N2CCOCC2)oc2c1ccc1ccccc12` [Nu7026, 2-(4-Morpholinyl)-4H-naphthol[1,2-b]pyran-4-one], the “increase of the percentage of OFP-positive cells” value (amine-modified donor DNA) is around 2 fold and the “increase of the percentage of OFP-positive cells” value (unmodified donor DNA) was “approximately 5 fold”.
